Source: patent US20030087942A1, “Method for the treatment and prevention of cachexia” (Washington University, priority 2001, published 2003)

Experiments:
LPS-induced weight loss = type: in vivo, mice (C3H/HeN)
Procedure: (§1) Animal housing. […] For pharmacological inhibitor studies, male C3H/HeN mice (Harlan Sprague Dawley, Inc., Indianapolis, Ind.) 10-12 wks of age were evaluated according to the method of Gross et al., Am J Physiol 278: R1415-23, 2000. See also Silver et al., J Clin Invest 95: 725-31, 1995. […] Control mice designated “WT” for the COX KO experiments were WT and heterozygous littermates arising from the COX-2 heterozygous matings. All mouse protocols were in accordance with NIH guidelines and approved by the Animal Care and Use Committee of Washington University School of Medicine.

IL-6 = assay: Plasma IL-6 after LPS (ELISA); type: in vivo, mice (C3H/HeN)
From the text: (§2) Serum corticosterone, leptin, and IL-6 measurements.

CRH mRNA = assay: Hypothalamic in situ mRNA hybridization, CRH; type: in vivo, mice (C3H/HeN); details: Compound 1/LPS group; 16 h after LPS with food withdrawal
Procedure: Hypothalamic in situ mRNA hybridization. […] After 24 h immersion in 4% paraformaldehyde, hypothalami were cryoprotected in 10% sucrose in DEPC D-PBS. Samples were embedded in OCT (Sakura Finetek USA, Inc., Torrance, Calif.), cut into 10 micron sections on a cryostat, and thaw mounted onto Superfrost plus slides (Fisher Scientific, Pittsburgh, Pa.). In situ hybridization utilized α-^33P-UTP-labelled 320 base anti-sense riboprobe from the mouse CRH gene or a 511 base anti-sense riboprobe from the rat neuropeptide Y (NPY) cDNA (generously provided by Dr. Steven Sabol, NHLBI, NIH) by methods described (e.g., Muglia et al., J Neurosci 19: 2051-8, 1999). For CRH and NPY mRNA detection, the regions of the hypothalamic paraventicular and arcuate nuclei were determined by Nissl staining and light microscopy. Six sections spanning each nucleus were hybridized to CRH (paraventricular nucleus) or NPY (arcuate nucleus) probes, and the two sections of peak intensity imaged for densitometric analysis. Hybridizing probes were quantitated by exposure of slides to Hyperfilm-βMax (Amersham Life Science, Inc., Arlington Heights, Ill.) with densitometric analysis employing NIH Image Software.

leptin = assay: Plasma leptin after LPS (ELISA); type: in vivo, mice (C3H/HeN); details: after LPS (3 h and 16 h)
From the text: as §2

[1] = 24 h period following LPS
Procedure: LPS-induced anorexia. C3H/HeN male mice were singly housed and acclimatized for at least 2 days to cages with grid bottoms prior to treatments. Body weight and food intake was measured daily until a stable baseline was obtained. Mice received either vehicle (phosphate buffered saline; PBS) or 100 μg of lipopolysaccharide (Escherichia coli 0111 :B4, Sigma, St. Louis, Mo.) in PBS via shallow midline, mid-abdominal, intraperitoneal injection. […] To determine the effect of COX inhibition, mice were pretreated with either vehicle (phosphate buffered saline plus 1% Tween 80), or vehicle plus agent 30 minutes prior to i.p. injection of LPS or vehicle, and re-dosed at 8 and 24 hrs after LPS. Cyclooxygenase inhibitors were administered via gavage using olive-tipped needles.

[2] = mouse, in vivo, 10 mg/kg
Procedure: as §1

NS(=O)(=O)c1ccc(-n2nc(C(F)(F)F)cc2-c2ccc(Cl)cc2)cc1 [Compound 1]
difference in weight loss between LPS-treated Compound 1 and Compound 2 groups (LPS-induced weight loss; 2 and 3 days after LPS treatment): remained significant
magnitude of early induction of plasma IL-6 vs. LPS alone (IL-6; 3 h after LPS): no change
sustained increases in plasma IL-6 vs. LPS alone (IL-6; 16 hours after LPS): no change
elevation of CRH mRNA in the paraventricular nucleus of the hypothalamus (CRH mRNA): approximately 3 fold
magnitude of induction of leptin, vehicle/LPS vs. Compound 1/LPS (leptin): did not differ
hypophagic response after LPS [1]: attenuated, but did not completely block the hypophagic response

COc1ccc(-n2nc(C(F)(F)F)cc2-c2ccc(Cl)cc2)cc1 [Compound 2]
body weight in comparison to the vehicle/LPS group (LPS-induced weight loss; 3 days after treatment, 300 μg/dose (10 mg/kg) gavage plus LPS): sustained weight reduction

COc1ccc2c(c1)c(CC(=O)O)c(C)n2C(=O)c1ccc(Cl)cc1 [indomethacin]
change in body weight relative to vehicle-treated control mice [2]: no change in body weight
weight loss associated with LPS administration, vs. vehicle/LPS (LPS-induced weight loss; 100 μg LPS i.p., gavage 30 min before, 8 and 24 h after LPS, indomethacin 150 μg/dose, Compound 1 300 μg/dose): tended to reduce the weight loss
